42 compounds from patent US12247010B2, “Tubulin inhibitors” (LIN BIOSCIENCE PTY LTD., priority 2017, dated 2025) can be followed below.

In the assay the test system is U87MG cells. Description: Cytotoxicity assay (cell viability, CellTiter 96 Aqueous MTS). It counts as cell-based. The settings on record: Homo sapiens, U-87 MG, 72 h, 72 hours incubation, starting concentration 50 uM, 9 point half log dilution, average where tested repeatedly. A digest of the protocol: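 U87MG cells plated at 7×10^3 cells/well overnight, then treated 72 h with 9-point half-log dilutions from a 50 uM starting concentration. Viability measured with CellTiter 96 Aqueous MTS; IC50 calculated from viability.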

For orientation: IC50 means the concentration needed to halve the response being measured. The low end stands for higher potency, the high end for lower potency.

In the case of `O=C(CCCc1ccc(-c2cc3cn[nH]c3cc2F)cc1)Nc1cccnc1` [Compound 209, 4-(4-(6-fluoro-1H-indazol-5-yl)phenyl)-N-(pyridin-3-yl)butanamide], the IC50 was < 500 nM. As to `O=C(CCCc1ccc(-c2cnc3[nH]ncc3c2)cc1)Nc1cccnc1` [Compound 210, 4-(4-(1H-pyrazolo[3,4-b]pyridin-5-yl)phenyl)-N-(pyridin-3-yl)butanamide], the IC50 was < 500 nM.

`O=C(CCCc1ccc(-c2cnc3c(c2)CCC(=O)N3)cc1)Nc1cccnc1` [Compound 211, 4-(4-(7-oxo-5,6,7,8-tetrahydro-1,8-naphthyridin-3-yl)phenyl)-N-(pyridin-3-yl)butanamide] yielded an IC50 of 1000 to 5000 nM. Under `O=C(CCCc1ccc(-c2ccc3[nH]ccc3c2)cc1)Nc1cccnc1` [Compound 213, 4-(4-(1H-indol-5-yl)phenyl)-N-(pyridin-3-yl)butanamide] stands < 500 nM; under `Cc1nn(C)c(C)c1-c1ccc(CCCC(=O)Nc2cccnc2)cc1` [Compound 216, N-(pyridin-3-yl)-4-(4-(1,3,5-trimethyl-1H-pyrazol-4-yl)phenyl)butanamide], > 5000 nM.

For `O=C(CCCc1ccc(-c2cscn2)cc1)Nc1cccnc1` [Compound 217, N-(pyridin-3-yl)-4-(4-(thiazol-4-yl)phenyl)butanamide], the IC50 is > 5000 nM. As for `CCOc1cccc(-c2ccc(CCCC(=O)Nc3cccnc3)cc2)c1F` [Compound 218, 4-(3′-ethoxy-2′-fluoro-[1,1′-biphenyl]-4-yl)-N-(pyridin-3-yl)butanamide], the IC50 was < 500 nM. In the case of `Cc1cccc(-c2ccc(CCCC(=O)Nc3cccnc3)cc2)c1F` [Compound 219, 4-(2′-fluoro-3′-methyl-[1,1′-biphenyl]-4-yl)-N-(pyridin-3-yl)butanamide], the IC50 was < 500 nM. For the compound `O=C(CCCc1ccc(-c2cccc(C(F)(F)F)c2F)cc1)Nc1cccnc1` [Compound 220, 4-(2′-fluoro-3′-(trifluoromethyl)-[1,1′-biphenyl]-4-yl)-N-(pyridin-3-yl)butanamide], the IC50 was < 500 nM. The compound `N#Cc1cccc(-c2ccc(CCCC(=O)Nc3cccnc3)cc2)c1F` [Compound 221, 4-(3′-cyano-2′-fluoro-[1,1′-biphenyl]-4-yl)-N-(pyridin-3-yl)butanamide] registered an IC50 of 1000 to 5000 nM. The value for `O=C(CCCc1ccc(-c2ccc3c(c2)CC(=O)N3)cc1)Nc1cccnc1` [Compound 222, 4-(4-(2-oxoindolin-5-yl)phenyl)-N-(pyridin-3-yl)butanamide] was < 500 nM; that for `O=C(CCCc1ccc(-c2ccc3[nH]cnc(=O)c3c2)cc1)Nc1cccnc1` [Compound 223, 4-(4-(4-oxo-1,4-dihydroquinazolin-6-yl)phenyl)-N-(pyridin-3-yl)butanamide] was > 5000 nM; that for `O=C(CCCc1ccc(-c2ccc3c(c2)OCC(=O)N3)cc1)Nc1cccnc1` [Compound 224, 4-(4-(3-oxo-3,4-dihydro-2H-benzo[b][1,4]oxazin-7-triazoloyl)phenyl)-N-(pyridin-3-yl)butanamide] was < 500 nM. With `O=C(CCCc1ccc(-c2cccc(Cl)c2F)cc1)Nc1cccnc1` [Compound 225, 4-(3′-chloro-2′-fluoro-[1,1′-biphenyl]-4-yl)-N-(pyridin-3-yl)butanamide], the IC50 was > 5000 nM. As to `Cc1cc(C(=O)NCCCc2ccc(-c3ccc4c(cnn4C)c3)cc2)no1` [Compound 227, 5-methyl-N-(3-(4-(1-methyl-1H-indazol-5-yl)phenyl)propyl)isoxazole-3-carboxamide], the IC50 was < 500 nM. Consider `Cc1cc(C(=O)NCCCc2ccc(-c3ccc4[nH]ncc4c3C)cc2)n(C)n1` [Compound 228, 1,3-dimethyl-N-(3-(4-(4-methyl-1H-indazol-5-yl)phenyl)propyl)-1H-pyrazole-5-carboxamide], for which the IC50 is < 500 nM. Consider `Cc1ccc(C(=O)NCCCc2ccc(-c3cnc4[nH]ccc4c3)cc2)cn1` [Compound 229, N-(3-(4-(1H-pyrrolo[2,3-b]pyridin-5-yl)phenyl)propyl)-6-methylnicotinamide], for which the IC50 is < 500 nM. The value for `Cn1ncc2cc(-c3ccc(CCCNC(=O)c4cncnc4)cc3)ccc21` [Compound 231, N-(3-(4-(1-methyl-1H-indazol-5-yl)phenyl)propyl)pyrimidine-5-carboxamide] was < 500 nM; that for `COc1cccc(-c2ccc(CCCNC(=O)c3ccc(C)nc3)cc2)c1F` [Compound 234, N-(3-(2′-fluoro-3′-methoxy-[1,1′-biphenyl]-4-yl)propyl)-6-methylnicotinamide] was < 500 nM; that for `Cc1cc(C(=O)NCCCc2ccc(-c3cnc4[nH]ccc4c3)cc2)no1` [Compound 235, N-(3-(4-(1H-pyrrolo[2,3-b]pyridin-5-yl)phenyl)propyl)-5-methylisoxazole-3-carboxamide] was < 500 nM.

For `Cc1cc(C(=O)NCCCc2ccc(-c3ccc4c(cnn4C)c3)cc2)n(C)n1` [Compound 236, 1,3-dimethyl-N-(3-(4-(1-methyl-1H-indazol-5-yl)phenyl)propyl)-1H-pyrazole-5-carboxamide], the IC50 was < 500 nM. The value for `Cc1ccc(C(=O)NCCCc2ccc(-c3ccc4ncccc4c3)cc2)cn1` [Compound 237, 6-methyl-N-(3-(4-(quinolin-6-yl)phenyl)propyl)nicotinamide] was < 500 nM; that for `COc1cccc(-c2ccc(CCCNC(=O)c3cc(C)nn3C)cc2)c1F` [Compound 238, N-(3-(2′-fluoro-3′-methoxy-[1,1′-biphenyl]-4-yl)propyl)-1,3-dimethyl-1H-pyrazole-5-carboxamide] was 501 to 1000 nM; that for `COc1cccc(-c2ccc(CCCNC(=O)c3cc(C)on3)cc2)c1F` [Compound 240, N-(3-(2′-fluoro-3′-methoxy-[1,1′-biphenyl]-4-yl)propyl)-5-methylisoxazole-3-carboxamide] was 501 to 1000 nM. For `Cc1ncccc1C(=O)NCCCc1ccc(-c2ccc3c(cnn3C)c2)cc1` [Compound 241, 2-methyl-N-(3-(4-(1-methyl-1H-indazol-5-yl)phenyl)propyl)nicotinamide], the IC50 was < 500 nM. As for `Cc1cc(C(=O)NCCCc2ccc(-c3ccc4ncccc4c3)cc2)n(C)n1` [Compound 242, 1,3-dimethyl-N-(3-(4-(quinolin-6-yl)phenyl)propyl)-1H-pyrazole-5-carboxamide], the IC50 is < 500 nM. The value for `COc1ccc(CC(=O)NCCCc2ccc(-c3ccc4c(cnn4C)c3)cc2)cc1` [Compound 244, 2-(4-methoxyphenyl)-N-(3-(4-(1-methyl-1H-indazol-5-yl)phenyl)propyl)acetamide] was < 500 nM; that for `COc1ccc(CC(=O)NCCCc2ccc(-c3cccc(OC)c3F)cc2)cc1` [Compound 245, N-(3-(2′-fluoro-3′-methoxy-[1,1′-biphenyl]-4-yl)propyl)-2-(4-methoxyphenyl)acetamide] was 501 to 1000 nM.

Take `COc1ccc(CC(=O)NCCCc2ccc(-c3ccc4ncccc4c3)cc2)cc1` [Compound 246, 2-(4-methoxyphenyl)-N-(3-(4-(quinolin-6-yl)phenyl)propyl)acetamide]: the IC50 was < 500 nM. The value for `COc1ccc(CC(=O)NCCCc2ccc(-c3ccc4[nH]ncc4c3C)cc2)cc1` [Compound 247, 2-(4-methoxyphenyl)-N-(3-(4-(4-methyl-1H-indazol-5-yl)phenyl)propyl)acetamide] was < 500 nM; that for `COc1cccc(-c2ccc(CCCNC(=O)c3cncnc3)cc2)c1F` [Compound 248] was 501 to 1000 nM; that for `O=S(=O)(NCCCc1ccc(-c2ccccc2F)cc1)c1cccnc1` [Compound 262, N-(3-(2′-fluoro-[1,1′-biphenyl]-4-yl)propyl) pyridine-3-sulfonamide] was 1000 to 5000 nM. In the case of `Cn1cnc(S(=O)(=O)NCCCc2ccc(-c3ccccc3F)cc2)c1` [Compound 263, N-(3-(2′-fluoro-[1,1′-biphenyl]-4-yl)propyl)-1-methyl-1H-imidazole-4-sulfonamide], the IC50 lay within 1000 to 5000 nM. For `O=C(Nc1ccc2[nH]ccc2c1)OCCc1ccc(-c2ccccc2F)cc1` [Compound 272, 2-(2′-fluoro-[1,1′-biphenyl]-4-yl)ethyl (1H-indol-5-yl)carbamate], the IC50 was > 5000 nM. As for `COc1ccc(CNC(=O)OCCc2ccc(-c3ccccc3F)cc2)cc1` [Compound 273, 2-(2′-fluoro-[1,1′-biphenyl]-4-yl)ethyl (4-methoxybenzyl)carbamate], the IC50 was > 5000 nM. Under `Cc1ccc(NC(=O)OCCc2ccc(-c3ccccc3F)cc2)cn1` [Compound 274, 2-(2′-fluoro-[1,1′-biphenyl]-4-yl)ethyl (6-methylpyridin-3-yl)carbamate] stands > 5000 nM; under `COc1cccc(-c2ccc(CC(C)(C)CNC(=O)c3ccc(C)nc3)cc2)c1F` [Compound 276, N-(3-(2′-fluoro-3′-methoxy-[1,1′-biphenyl]-4-yl)-2,2-dimethylpropyl)-6-methylnicotinamide], 1000 to 5000 nM; under `Cc1ccc(C(=O)NCC(C)(C)Cc2ccc(-c3ccc4c(cnn4C)c3)cc2)cn1` [Compound 277, N-(2,2-dimethyl-3-(4-(1-methyl-1H-indazol-5-yl)phenyl)propyl)-6-methylnicotinamide], 501 to 1000 nM. For the compound `O=C(Nc1cccnc1)N1CCN(c2ccc(-c3ccccc3F)cc2)CC1` [Compound 278, 4-(2′-fluoro-[1,1′-biphenyl]-4-yl)-N-(pyridin-3-yl)piperazine-1-carboxamide], the IC50 fell in the range of 1000 to 5000 nM. In turn, `Cc1ccc(NC(=O)N2CCN(c3ccc(-c4ccccc4F)cc3)CC2)cn1` [Compound 279, 4-(2′-fluoro-[1,1′-biphenyl]-4-yl)-N-(6-methylpyridin-3-yl)piperazine-1-carboxamide] yielded an IC50 of 501 to 1000 nM. For the compound `O=C(Nc1cn[nH]c1)N1CCN(c2ccc(-c3ccccc3F)cc2)CC1` [Compound 281, 4-(2′-fluoro-[1,1′-biphenyl]-4-yl)-N-(1H-pyrazol-4-yl)piperazine-1-carboxamide], the IC50 is > 5000 nM. Turning to `Cc1ccc(C(=O)NCCOc2ccc(-c3ccccc3F)cc2)cn1` [Compound 282, N-(2-((2′-fluoro-[1,1′-biphenyl]-4-yl)oxy)ethyl)-6-methylnicotinamide], the IC50 was > 5000 nM.
